15 molecules from patent US20260021193A1, “IMMUNOCONJUGATES AND METHODS” (Immunome, Inc., priority 2022, published 2026) can be followed below.

Series [1] in a line: Human liver microsome clearance (HLM CL). The class given is in vitro ADME. Also noted: CLint scaled / half-life: dose or concentration left out as unconfirmed. The protocol: Working solution was prepared by adding 5 μL of compound and control stock solution (10 mM in dimethyl sulfoxide, DMSO) to 495 μL of acetonitrile (ACN) (intermediate solution concentration: 100 μM, 99% CAN and 1% DMSO. The appropriate concentrations of microsome working solutions were prepared in 100 mM potassium phosphate buffer. After reaction plates containing mixtures of compound and microsomes were pre-incubated at 37° C. for 10 min, […] of 2 mM of NADPH and 2 mM of MgCl2 solution was added to start the reaction. The final concentrations of incubation medium were as follows: microsome—0.5 mg protein/mL, test compound/control […], NADPH—1 mM, MgCl2—1 mM, acetonitrile 0.99%, DMSO 0.01%. Incubations were performed at 37° C. for 60 min. Samples were taken out at T0, T5, T15, T30, T45 and T60, which was added intermediately to the ice-cold stop solution (acetonitrile with 200 ng/mL of to butamide and labetalol as internal standard) (125 μl), shaken for 10 min, centrifuged at 4000 rpm for 20 min at 4° C. Analytical plates were analyzed by LCMS.
(§1) Human liver microsome clearance assay assess metabolism by the cytochrome P450 system (phase I enzymes). These enzymes oxidize substrates by incorporating oxygen atoms into hydrocarbons, thus causing the introduction of hydroxyl groups, or N- O- and S-dealkylation of substrates and forming more polar products easier to be cleared. Human hepatocyte clearance assay measures more broadly the overall cellular metabolism of the test compound (phase I and phase II enzyme pathways). Phase II enzymes catalyze the conjugation reaction of xenobiotic metabolites and charged species, such as glutathione, sulfate, glycine, or glucuronic acid to form even more polar compounds for easier clearance.

A further series concerns MDA-MB-468. The series can be described thus: CTG assay of payloads, MDA-MB-468 cells. The note with it: Homo sapiens, MDA-MB-468; Table 1; 72 h, CellTiter-Glo. The class given is cell-based, human. The source says:
(§2) The CTG assay is a method of determining the number of viable cells in culture based on quantitation of the ATP present, an indicator of metabolically active cells. The cell assay requires the addition of a single reagent, Cell Titer Glo, in which cells are lysed and generation of a luminescent signal is produced. The luminescent signal is proportional to the amount of ATP present. The amount of ATP is directly proportional to the number of cells present in culture. For this assay, cells were ensured to be in log-phase for either Jeko-1 or MDA-MB-468. Cells were transferred to 96 wells and treated with compounds in three-fold serial dilution starting from […] (10 points dilution), for 72 h. Cell viability was analyzed with CellTiter-Glo® Luminescent Cell Viability Assay (Promega) following manufactures' instruction. Percentage of viable cells in each compound concentration was determined by normalizing with the luminescence of vehicle control and plotted into percentage of viability versus dose response curve by nonlinear fit in GraphPad Prism software.

Another series concerns Jeko-1. Kind of series: CTG assay of payloads, Jeko-1 cells. Format: cell-based, human. Particulars: Homo sapiens, JeKo-1, 72 h, CellTiter-Glo.
Excerpt: as §2

Series [2] is described as follows: Human hepatocyte clearance (HHEP CL). Format: in vitro ADME. Further details: CLint scaled / half-life: dose or concentration left out as unconfirmed. Particulars: both sexes. The protocol:
Suspensions of human hepatocytes (from 10 mixed gender human donors, final concentration 0.5×10^6 cell/mL) in Williams' E medium were incubated for 90 min with a test compound (0.90% acetonitrile and 0.10% DMSO, final concentration […]) and positive controls (7-Ethoxycoumarin, 7-Hydroxycoumarin, 0.90% acetonitrile and 0.10% DMSO, final concentration […]), with constant shaking at about 600 rpm at 37° C. in an incubator at 5% CO2 and 95% humidity. The total volume of incubation was 200 μl. A sample ([…]) was taken out at T0, 15, 30, 60 and 90 min, which was added intermediately to the ice-cold stop solution (acetonitrile with 200 ng/mL of to butamide and labetalol as internal standard) (125 μl), and vortexed at 500 rpm for 10 min, centrifuged at 3220×g for 20 min at 4° C. Analytical plates were sealed and stored at 4° C. until LCMS analysis. Viability of hepatocytes at pre-incubation was determined to be 84.5%.
as §1

Series [3] in a line: PAMPA (Parallel Artificial Membrane Permeability Assay). The class given is physicochemical. Also noted: dose or concentration left out as unconfirmed. The source says:
PAMPA is a method which determines the permeability of substances from a donor compartment, through a lipid-infused artificial membrane into an acceptor compartment. See Ottaviani, G.; Martel, S.; Carrupt, P-A. “Parallel Artificial Membrane Permeability Assay: A New Membrane for the Fast Prediction of Passive Human Skin Permeability”, Journal of Medicinal Chemistry, 2006, 49 (13), 3948-3954). A multi-well microtitre plate is used for the donor and a membrane/acceptor compartment is placed on top; the whole assembly is commonly referred to as a “sandwich”. At the beginning of the test, the drug is added to the donor compartment, and the acceptor compartment is drug-free. After an incubation period which may include stirring, the sandwich is separated, and the amount of drug is measured in each compartment. Mass balance allows calculation of drug that remains in the membrane.
The PAMPA was performed by Pion Inc using the GIT-0 lipid and 5 mM donor solution in pH 5.0 and pH 7.4 PRISMA buffer (containing 0.05% DMSO). The higher PAMPA data has been associated with better bystander killing. (Ogitani Y.; Hagihara K.; Oitate, M.; Naito, H.; Agatsuma T. “Bystander killing effect of DS-8201a, a novel anti-human epidermal growth factor receptor 2 antibody-drug conjugate, in tumors with human epidermal growth factor receptor 2 heterogeneity” Cancer Science, 2016, 107 (7), 1039-1046).

SMILES strings stand for the structures. Where two headings read alike, the source gives them in different places.

For `CC[C@@]1(O)C(=O)OCc2c1cc1n(c2=O)Cc2c-1nc1cc(F)c(C)c3c1c2[C@@](C)(N(C)CCO)CC3.Cl` (single isomer, unassigned) [Compound 6-44, hydrochloride], the CLint scaled in series [1] (microsomes, Table 1, human liver microsome clearance, read-out: HLM Cl) amounted to 3.1 L/h/kg; in series [2] (Table 1, human hepatocytes intrinsic clearance, read-out: HHEP Cl) it was 2.9 L/h/kg. The concentration for half-maximal inhibition (IC50) in the series on MDA-MB-468 was found to be 198 nM; in the series with Jeko-1 (Table 1), 24.1 nM.

On to `CC[C@@]1(O)C(=O)OCc2c1cc1n(c2=O)Cc2c-1nc1cc(F)c(C)c3c1c2[C@@](C)(N(C)CCO)CC3.Cl` (single isomer, unassigned) [Compound 6-44], for which the Papp in series [3] (Table 1, pH 5.0, read-out: PAMPA Pe pH 5.0) worked out at 549 nm/s; in series [3] (Table 1, pH 7.4, read-out: PAMPA Pe pH 7.4), 83 nm/s. Besides, the half-life in series [1] (Table 1, human liver microsomes, read-out: HLM (T1/2)) is 24 min; in series [2] (Table 1, human hepatocytes, read-out: HHEP (T1/2)) it was 80 min.

`CC[C@@]1(O)C(=O)OCc2c1cc1n(c2=O)Cc2c-1nc1cc(F)c(C)c3c1c2[C@H](CCO)CC3` (single isomer, unassigned) [Compound 12-58]: the Papp in series [3] (pH 5) was determined as 29 nm/s; in series [3] (pH 7.4) it was 38 nm/s. Also, the half-life stood at 20.1 min in series [1] (human, microsomes) and 68.1 min in series [2] (human, hepatocytes). In the series on Jeko-1 (Table 2), this molecule showed a 50% inhibitory concentration (IC50) of 0.24 nM.

For the molecule `CC[C@@]1(O)C(=O)OCc2c1cc1n(c2=O)Cc2c-1nc1cc(F)c(C)c3c1c2[C@@H](CCO)CC3` (single isomer, unassigned) [Compound 12-59], the values for the Papp in series [3] (pH 5) and in series [3] (pH 7.4) were 469 nm/s and 334 nm/s, respectively. The half-life stood at 20.1 min in series [1] (human, microsomes) and 64.3 min in series [2] (human, hepatocytes). In the series on Jeko-1 (Table 2), the midpoint of inhibition, the IC50, lay at 0.32 nM.

`CC[C@@]1(O)C(=O)OCc2c1cc1n(c2=O)Cc2c-1nc1cc(F)c(C)c3c1c2[C@H](CCCO)CC3` (single isomer, unassigned) [Compound 13-63]: the values for the Papp in series [3] (pH 5) and in series [3] (pH 7.4) were 347 nm/s and 329 nm/s, respectively. Also, the half-life turned out to be 27.1 min in series [1] (human, microsomes) and 141 min in series [2] (human, hepatocytes). For the same molecule, the IC50 with Jeko-1 (Table 2) was 0.44 nM.

Take `CC[C@@]1(O)C(=O)OCc2c1cc1n(c2=O)Cc2c-1nc1cc(F)c(C)c3c1c2[C@@H](CCCO)CC3` (single isomer, unassigned) [Compound 13-64]: the Papp turned out to be 146 nm/s in series [3] (pH 5) and 106 nm/s in series [3] (pH 7.4). Moreover, the half-life in series [1] (human, microsomes) was found to be 22 min; in series [2] (human, hepatocytes) it was 79.4 min. This molecule also returned an IC50 in the series on Jeko-1 (Table 2) of 0.28 nM.

Take `CC[C@@]1(O)C(=O)OCc2c1cc1n(c2=O)Cc2c-1nc1cc(F)c(C)c3c1c2[C@](C)(CCO)CC3` (single isomer, unassigned) [Compound 14-70]: the Papp was 442 nm/s in series [3] (pH 5) and 285 nm/s in series [3] (pH 7.4). Further, the half-life was 18.4 min in series [1] (human, microsomes) and 53.6 min in series [2] (human, hepatocytes). In the series with Jeko-1 (Table 2), this molecule had a concentration for half-maximal inhibition (IC50) of 0.79 nM.

Consider `CC[C@@]1(O)C(=O)OCc2c1cc1n(c2=O)Cc2c-1nc1cc(F)c(C)c3c1c2[C@@](C)(CCO)CC3` (single isomer, unassigned) [Compound 14-71], for which the Papp amounted to 250 nm/s in series [3] (pH 5) and 173 nm/s in series [3] (pH 7.4). Further, the half-life was determined as 10.8 min in series [1] (human, microsomes) and 47 min in series [2] (human, hepatocytes). Further, in the series with Jeko-1 (Table 2), the 50% inhibitory concentration (IC50) was determined as 0.18 nM.

On to `CC[C@@]1(O)C(=O)OCc2c1cc1n(c2=O)Cc2c-1nc1cc(F)c(C)c3c1c2[C@](C)(CCCO)CC3` (single isomer, unassigned) [Compound 15-75], for which the Papp stood at 165 nm/s in series [3] (pH 5) and 115 nm/s in series [3] (pH 7.4). Besides, the half-life in series [1] (human, microsomes) came out at 22.4 min; in series [2] (human, hepatocytes), 76.5 min. Further, in the series on Jeko-1 (Table 2), half-maximal inhibition (IC50) was put at 0.88 nM.

Regarding `CC[C@@]1(O)C(=O)OCc2c1cc1n(c2=O)Cc2c-1nc1cc(F)c(C)c3c1c2[C@@](C)(CCCO)CC3` (single isomer, unassigned) [Compound 15-76], the figures for the Papp in series [3] (pH 5) and in series [3] (pH 7.4) were 455 nm/s and 332 nm/s, respectively. For the same molecule, the half-life in series [1] (human, microsomes) was 5.2 min; in series [2] (human, hepatocytes), 40.8 min. This molecule also returned a half-maximal inhibitory concentration (IC50) in the series on Jeko-1 (Table 2) of 0.27 nM.

As for `CC[C@@]1(O)C(=O)OCc2c1cc1n(c2=O)Cc2c-1nc1cc(F)c(C)c3c1c2[C@](C)(COCCO)CC3` (single isomer, unassigned) [Compound 16-82], the Papp in series [3] (pH 5) is 548 nm/s; in series [3] (pH 7.4), 255 nm/s. Also, the half-life in series [1] (human, microsomes) came to 5.6 min; in series [2] (human, hepatocytes) it was 45 min. The same molecule displayed an IC50 in the series with Jeko-1 (Table 2) of 0.64 nM.

For the molecule `CC[C@@]1(O)C(=O)OCc2c1cc1n(c2=O)Cc2c-1nc1cc(F)c(C)c3c1c2[C@@](C)(COCCO)CC3` (single isomer, unassigned) [Compound 16-83], the Papp in series [3] (pH 5) was found to be 477 nm/s; in series [3] (pH 7.4) it was 251 nm/s. For the same molecule, the half-life came out at 25.7 min in series [1] (human, microsomes) and 113 min in series [2] (human, hepatocytes). The molecule further had an IC50 with Jeko-1 (Table 2) of 1.1 nM.

Turning to `C=CC[C@@H]1CCc2c(C)c(F)cc3nc4c(c1c23)Cn1c-4cc2c(c1=O)COC(=O)[C@]2(O)CC` (single isomer, unassigned) [Compound 17-86], the half-life in series [1] (human, microsomes) is 13 min; in series [2] (human, hepatocytes) it was 46 min. In the series with Jeko-1 (Table 2), this molecule yielded an IC50 of 0.93 nM.

Regarding `C=CC[C@H]1CCc2c(C)c(F)cc3nc4c(c1c23)Cn1c-4cc2c(c1=O)COC(=O)[C@]2(O)CC` (single isomer, unassigned) [Compound 17-87], the half-life in series [1] (human, microsomes) is 5.4 min; in series [2] (human, hepatocytes), 31 min. In the series with Jeko-1 (Table 2), this molecule showed a half-maximal inhibitory concentration (IC50) of 0.58 nM.

Take `CC[C@@]1(O)C(=O)OCc2c1cc1n(c2=O)Cc2c-1nc1cc(F)c(C)c3c1c2C(CO)(CO)CC3` [Compound 2-20, (S)-9-ethyl-5-fluoro-9-hydroxy-1,1-bis(hydroxymethyl)-4-methyl-2,3,12,15-tetrahydrobenzo [de]pyrano[3′,4′:6,7]indolizino[1,2-b]quinoline-10,13(1H,9H)-dione]: the CLint scaled in series [1] (human, microsomes) is 2.76 L/h/kg; in series [2] (human, hepatocytes), 1.44 L/h/kg. For the same molecule, the half-life in series [1] (human, microsomes) was 27 min; in series [2] (human, hepatocytes), 161 min. Also, the figures for the IC50 with MDA-MB-468 and in the series with Jeko-1 (Table 1) were 351 nM and 40.8 nM, respectively.
